This is an account of results in patent US6890950B2, “Lapachone delivery systems, compositions and uses related thereto” (priority 2002, dated 2005).

Values joined by “and” are separate entries in the source; they are usually repeats but may differ in a detail not shown here. Identical values can stand only once.

Data set [1] concerns PC-3. Briefly: TUNEL apoptosis assay. In kind it is cell-based, human. Conditions: 10 μM, 4h, TUNEL 48h.
The test system of data set [2] is LNCaP. Briefly: TUNEL apoptosis assay. Conditions: 10 μM, 4h. The data set is classed as cell-based, human.
In data set [3] the test system is DU-145. Description: TUNEL apoptosis assay. In kind it is cell-based, human. Conditions: 10 μM, 4h, TUNEL 48h.
Data set [4] can be described thus: phase solubility studies of β-lap with cyclodextrins. In kind it is physicochemical. As to the method: Solubility studies were performed by adding excess amount of β-lap to a series of PBS buffer that contain different concentrations of each CD molecule ranging from zero to its solubility limit (see Table 1 for the solubility limit of each CD molecule). A schematic diagram of the intermolecular interactions and their effect on solubility is provided as FIG. 1. The suspensions were stirred at 25° C. until dissolution equilibrium was reached. […] Phase solubility diagram for each CD was obtained by plotting the β-lap solubility at dissolution equilibrium as a function of the CD concentration.

Data set [5] in a line: association constant (Kc) from phase solubility diagrams. Conditions: for association constant Kc (phase solubility): inclusion complex with β-lap, PBS, 25° C., 1:1. In kind it is physicochemical. As to the method: Solubility studies were performed by adding excess amount of β-lap to a series of PBS buffer that contain different concentrations of each CD molecule ranging from zero to its solubility limit (see Table 1 for the solubility limit of each CD molecule). A schematic diagram of the intermolecular interactions and their effect on solubility is provided as FIG. 1. The suspensions were stirred at 25° C. until dissolution equilibrium was reached. Then aliquots were withdrawn, filtered (Nylon syringe filter 0.2 μm pore size from Fisher Scientific (Pittsburg, Pa.)) and analyzed for β-lap concentrations by UV-V is spectrophotometry (λmax=257.2 nm, ε=109.6 ml/(mg·cm)). Phase solubility diagram for each CD was obtained by plotting the β-lap solubility at dissolution equilibrium as a function of the CD concentration. The association constant (Kc) [formula] for the complex formation was calculated based on Equation 1 assuming a 1:1 ratio of complex formation (T. Higuchi and K. A. Connors. Adv Anal Chem Instrum. 4:117-212 (1965)). ^1H NMR Study of CD.β-lap Inclusion Complexes

The test system of data set [6] is A549 NSCLC cells. Description: survival and apoptosis (PARP cleavage) of NSCLC cells. In kind it is cell-based, human. Conditions: 50 μM, 4 h.
Text: NQO1-dependent apoptosis of A549 or CC-10 NSCLC cells by β-lap.
Data set [7] concerns NQO1-containing LNCaP clones. Description: colony forming ability assays. In kind it is cell-based, human. Conditions: 4-h pulses. The method, then: FIG. 14. […] Colony forming ability assays (CFAs) were performed three times, each in triplicate.
LNCaP cells were transfected with either pcDNA3 empty vector or pcDNA3 containing full-length NQO1 cDNA.

Take `CC[C@@]1(O)C(=O)OCc2c1cc1n(c2=O)Cc2cc3ccccc3nc2-1` [Camptothecin, camptothecin]: the “Apoptosis (%) After Drug Treatment” value was 22 ± 7% in data set [1] (PC-3 + DC (50 μM dicoumarol)); 6 ± 5% in data set [1] (PC-3 + DVED); 23 ± 3% in data set [1] (PC-3); 33 ± 9% in data set [2] (LNCaP + DC (50 μM dicoumarol), TUNEL 48h); 10 ± 3% in data set [2] (LNCaP + DVED, TUNEL 48h); 30 ± 5% in data set [2] (LNCaP, TUNEL 48h post-treatment). In addition, the “Apoptosis (%) After Drug Treatment” value in data set [3] (DU-145 + DC (50 μM dicoumarol)) is listed as 43 ± 12%; in data set [3] (DU-145 + DVED), 10 ± 5%; in data set [3] (DU-145), 30 ± 06%.

As to hydroxypropyl β-cyclodextrin [HPβ-CD], the “solubility (limit) of HPβ-CD” value in data set [4] is 360 mM.

Turning to `OC[C@H]1O[C@@H]2O[C@H]3[C@H](O)[C@@H](O)[C@@H](O[C@H]4[C@H](O)[C@@H](O)[C@@H](O[C@H]5[C@H](O)[C@@H](O)[C@@H](O[C@H]6[C@H](O)[C@@H](O)[C@@H](O[C@H]7[C@H](O)[C@@H](O)[C@@H](O[C@H]1[C@H](O)[C@H]2O)O[C@@H]7CO)O[C@@H]6CO)O[C@@H]5CO)O[C@@H]4CO)O[C@@H]3CO` [α-CD], the “association constant Kc (phase solubility)” value in data set [5] was 20.0 ± 0.7 M⁻¹ and 20 M⁻¹.

On to `OC[C@H]1O[C@@H]2O[C@H]3[C@H](O)[C@@H](O)[C@@H](O[C@H]4[C@H](O)[C@@H](O)[C@@H](O[C@H]5[C@H](O)[C@@H](O)[C@@H](O[C@H]6[C@H](O)[C@@H](O)[C@@H](O[C@H]7[C@H](O)[C@@H](O)[C@@H](O[C@H]8[C@H](O)[C@@H](O)[C@@H](O[C@H]9[C@H](O)[C@@H](O)[C@@H](O[C@H]1[C@H](O)[C@H]2O)O[C@@H]9CO)O[C@@H]8CO)O[C@@H]7CO)O[C@@H]6CO)O[C@@H]5CO)O[C@@H]4CO)O[C@@H]3CO` [γ-CD], for which, in data set [5], the “Kc increase over α-CD (factor)” value worked out at 8; the “association constant Kc (phase solubility)” value is 160 ± 5 M⁻¹ and 160 M⁻¹.

Turning to `O=c1oc2ccccc2c(O)c1Cc1c(O)c2ccccc2oc1=O` [dicoumarol], the “effect on cell growth (survival), alone” value in data set [6] is “no effect”.

`CC1=CC(=O)c2ccccc2C1=O` [menadione]: the “sensitivity compared to NQO1-deficient LN-pcDNA3 vector alone cells” value in data set [7] is listed as “resistant”.
